{
  "source": "patent US7141661B2",
  "about": "“Non-steroidal anti-inflammatory drug activated gene with anti-tumorigenic properties” (The United States of America as represented by the …, priority 2000, dated 2006)",
  "key": {"HCT-116 cells": {"system": "HCT-116 cells", "experiment": "Apoptosis and cell cycle by PI staining / FACS in HCT-116 cells", "format": "cell-based, human", "description": "To determine whether NAG-1 gene expression is associated with NSAID-induced apoptosis or altered cell cycle kinetics, flow cytometric analysis of the distribution of cells at various stages of the cell cycle was performed. Apoptosis and cell cycle kinetics of INDO-treated HCT-116 cells were measured at different time points. HCT-116 cells were treated with INDO, stained with PI, and analyzed by flow cytometry. Seven thousand five hundred cells were examined by flow cytometry by gating on an area versus width dot plot to exclude cell debris and cell aggregates. Apoptosis is represented by the fold increase in sub-G1 population over 0 hr treatment.\nThe DNA content for NSAIDs, PPARγ ligand, and vehicle treated HCT-116 cells was determined by FACS. Cells were plated at a density of 4×10^5 cells/well in 2 ml of medium in 6 well plates, incubated for 16 h, and then treated with NSAIDs or TGZ in the presence of serum. After treatment, the cells were harvested, washed with PBS, fixed by the slow addition of cold 70% ethanol to a total of 1 ml, and stored overnight at 4° C. The fixed cells were pelleted, washed once with PBS, and stained in 1 ml of 20 μg/ml of propidium iodide (PI), 1 mg/ml RNase in PBS for 20 min. Seven thousand five hundred cells were examined by flow cytometry using Becton Dickinson FACSort equipped with CellQuest software, by gating on an area versus width dot plot to exclude cell debris and cell aggregates. Each cell cycle distribution was analyzed by the McCycle program using one cell cycle parameter. Apoptosis was measured based on the level of sub-diploid DNA contained in cells following treatment with NSAIDs or TGZ using CellQuest software.\nNorthern analysis was performed using NAG-1 and β-actin as probes. The data represent relative expression of NAG-1 mRNA over the control (1.0). Each NSAID was tested at 3 different concentrations and maximally effective concentration used for apoptosis determination. Apoptosis ratio by PI staining was measured by FACS. […] The data represent relative apoptosis ratio over vehicle treatment by PI staining methods. TACS™ Annexin V-FITC kit was also used to confirm apoptosis."}, "NAG-1": {"system": "NAG-1", "experiment": "Western blot analysis of secreted NAG-1 protein from HCT-116 cells", "format": "cell-based, human", "settings": "HCT-116, 100 μM INDO, 36 and 48 hr, no serum", "description": "The level of secreted NAG-1 was evaluated using Western blot analysis with anti-human-NAG-1 antibody (generously provided by Dr. Paralkar of Pfizer). HCT-116 cells were grown to 60–80% confluency in 10 cm plates followed by 48 hr treatment in the absence of serum with either NSAIDs or TGZ. The media were harvested and concentrated approximately 15-fold using Centriprep 10 concentrators (Amicon). Proteins (30 μg) were separated by 15% SDS-PAGE and transferred for 1 hr onto nitrocellulose membrane (Schleicher & Schuell). The blots were blocked for 1 hr with 5% skim milk in TBS/Tween 0.05%, and probed with anti-NAG-1 antibody (1 μg/ml in TBS-0.2%-Tween20) at […] overnight. After washing, the blots were treated with horseradish peroxidase-conjugated secondary antibody for 1 hr and washed several times. The signal was detected by enhanced chemiluminescence system (AMERSHAM) and autoradiography.\nHCT-116 cells were treated with 100 μM INDO in the absence of serum for various times. In FIG. 1B, left panel. 10 μg of total RNA was loaded in each lane. Northern blotting was performed using the NAG-1 probe and re-probed with β-actin probe. The hybridization signals were quantitated using Scion Image software (Scion). Levels of the 1.3 kb NAG-1 transcript were normalized to the levels of β-actin transcripts and represented relative to 0 hr treatment. […] The signal was detected by ECL reagent (AMERSHAM)."}},
  "data": [
    {"molecule": "COc1ccc2c(c1)c(CC(=O)O)c(C)n2C(=O)c1ccc(Cl)cc1", "note": "[Indomethacin]", "values": [
      {"measurement": "Increase in apoptosis (sub-G1 population over 0 hr)", "setting": "HCT-116 cells; HCT-116, 36 hr exposure", "result": "~3", "unit": "fold"},
      {"measurement": "Apoptosis (PI Staining), relative apoptosis ratio over vehicle", "setting": "HCT-116 cells; HCT-116, 48 hr in presence of serum, maximally effective concentration, FACS", "result": "2.9 ± 0.121"},
      {"measurement": "Increase in apoptosis (sub-G1 population over 0 hr)", "setting": "HCT-116 cells; HCT-116, 60 hr exposure", "result": 4.5, "unit": "fold"},
      {"measurement": "Earliest time at which apoptosis was observed", "setting": "HCT-116 cells; HCT-116, presence of serum, TGZ 5 μM", "result": 36, "unit": "h"},
      {"measurement": "Time point at which G1 arrest was seen", "setting": "HCT-116 cells; HCT-116, TGZ 5 μM", "result": 12, "unit": "h"},
      {"measurement": "NAG-1 protein expression", "setting": "NAG-1", "result": "marked increase"}
    ]}
  ]
}
